This note sets out measurements from ChEMBL document CHEMBL1157942, “Bioactive diterpenes from the fruits of Detarium microcarpum” (2006).

Bounds are passed on as bounds.

The subject of this test is Cladosporium cucumerinum. The test is described as follows: Antifungal activity against Cladosporium cucumerinum after 3 days. The test is classed as functional.
On to `C/C(=C/C(=O)O)CC[C@]1(C)[C@@H](C)CC[C@]2(C)[C@H]1CC[C@@H](O)[C@@]2(C)O`, for which the Activity stood at 10 µg.

Turning to `CC1=CC(=O)C[C@H]2[C@](C)(CC/C(C)=C/C(=O)O)[C@@H](C)CC[C@]12C`, the Activity is over 100 µg.

Turning to `C/C(=C\C(=O)O)CC[C@@]1(C)[C@H]2CC[C@H]3O[C@@]3(C)[C@@]2(C)CC[C@@H]1C`, the Activity stood at 10 µg.

Turning to `CC1=CC(=O)C[C@H]2[C@](C)(CC/C(C)=C/C(=O)O)[C@H](C)CC[C@@]12C`, the Activity turned out to be 100 µg.

`C/C(=C\C(=O)O)CC[C@]1(C)[C@H](C)CC[C@]2(C)[C@H]1CC[C@H](O)[C@@]2(C)O`: the Activity was over 100 µg.

The molecule `C=C1CC[C@@H]2C(C)(C)CCC[C@@]2(C)[C@@H]1CC/C(C)=C/C(=O)O` [COPALIC ACID] came in with an Activity of over 100 µg.

The molecule `Clc1ccc(COC(Cn2ccnc2)c2ccc(Cl)cc2Cl)c(Cl)c1` (configuration not stated) [MICONAZOLE] gave an Activity of 1 µg.
